According to patent US20020155519A1 (priority 1997, published 2002):
“Also recorded” adds a separate entry of the source. Where two headings read alike, the source gives them in different places.

How the values were obtained:
[1] = test system: human blood bacterium (HBB); test: Resistance of HBB to detergents and disinfectants; assay type: cell-based; conditions: for resistance of HBB to detergent (lysis): 0.1%
[2] = test system: HBB; assay type: in vivo, human; conditions: uncontrolled patient trials
Description: Experiments have been conducted investigating the correlation of the presence of or increased presence of HBB with the clinical symptoms of three autoimmune diseases, and the results of instituting an antibiotic regimen in patients. […] All patients were cultured repeatedly to determine levels of HBB. The antibiotic treatment regimen was based on antibiotic sensitivities done on a pilot series of cultures and on the known properties of the organism, which clearly requires long-term, continuous treatment to address its very slow growth rate. This approach differs from usual treatment regimens for other bacterial infections. Neither the subjects nor the investigators were blind, and there was no untreated or placebo-treated control group.
Antibiotic treatment consisted of one or more of the following three antibiotic regimens: (1) penicillin V, 500 mg four times a day, plus probenecid, 500 mg four times a day, plus Augmentin 500 mg four times a day; (2) ciprofloxacin, 500 mg three times a day; or (3) isoniazid, 100 mg three times a day. Most patients received a combination of two of the regimens concurrently.
A regime or schedule is continued to optimize effectiveness, balanced against negative effects of treatment.

[3] = test system: human blood bacterium (HBB); assay type: cell-based
Description: Normally 1 ml of serum was added to 9 ml of medium. Larger flasks with a proportionately larger amount of serum and medium are used to produce bacteria in quantity. Modulators might be added to some flasks in 10× or higher concentration (corresponding to addition of 1 ml or less). When examining the effect of modulators, control flasks were prepared similarly without the addition of the modulator. Levels were observed microscopically (inverted phase microscope, observing the number of organisms per field crudely or by actual count) after incubation, typically at several points in time.
When multiple comparisons were done at once, they were done in 12 well or 24 well cell culture plates, most often the latter. With the latter, typically 1 ml of medium inoculated with serum is added to each well, with modulators added at 10× or higher concentration (0.1 ml or less). When comparisons are done in well plates, control wells without any additions are included. Levels were observed microscopically (inverted phase microscope) after incubation, typically at several points in time. The well plate cultures were also used for antibiotic sensitivity testing.
These procedures are those known in the art and include uses of antibodies and DNA probes, Western and Southern blots, PCR and the diagnostic kits therefor. First, organisms can be quantified by culture. […] If a means is found to immobilize the bacteria to grow isolated colonies, counts will be more accurate. Quantification is used to follow the progress of treatment and to correlate HBB levels with specific disease syndromes. Quantification is used also for antibiotic sensitivity measurements, comparing the level of growth with antibiotic treatment to the level of growth without treatment. Such antibiotic sensitivity measurements establish the basis for the clinical choice of antibiotic drugs.

[4] = test system: yeast-like forms of HBB; test: Suppression of yeast-like forms of HBB by antifungal agents; assay type: cell-based, human blood bacterium (HBB)
[5] = test system: extracellular exudate and the bacteria (HBB); test: Lectin binding to HBB exudate (slime) and bacteria; design: species or system human blood bacterium (HBB)
Text: The amount of the exudate produced is strongly influenced by or dependent upon the composition of the culture medium. The current medium formulae (L and O) have been designed to reduce slime production. In the original, crude medium, a centrifuged culture may consist of more than 10% of this gel by volume. In the L and O media, older cultures of HBB may develop a thin layer of gel that traps the cells and makes them adherent to the culture flask.

CCCCCCCCCCCCOS(=O)(=O)[O-].[Na+] [SDS]
resistance of HBB to detergent (lysis) [1]: does cause lysis

Cc1onc(-c2c(Cl)cccc2Cl)c1C(=O)N[C@@H]1C(=O)N2[C@@H]1SC(C)(C)[C@@H]2C(=O)O [dicloxacillin]
clinical response in patients (in words) [2]: A few patients have done better

Oc1c(Cl)cc(Cl)c(Cl)c1Cc1c(O)c(Cl)cc(Cl)c1Cl [hexachlorophene]
resistance of HBB to disinfectant [1]: resistant

CCCCCCCCCCCCN(C)CC(=O)O [n-laurylsarcosine]
resistance of HBB to detergent (lysis) [1]: resist

CCCCCCCCCCC(=O)[O-].[Na+] [sodium undecylate]
observed antibiotic and antifungal sensitivities (outcome, number of isolates) ([3]; 50 μg/ml): no effect (1 isolate)
suppression of yeast-like forms [4]: no suppression

NP-40
resistance of HBB to detergent (lysis) [1]: resist

Triton X
resistance of HBB to detergent (lysis) [1]: resist

Tween-20
resistance of HBB to detergent (lysis) [1]: resist

amphoptericin
observed antibiotic and antifungal sensitivities (outcome, number of isolates) ([3]; 0.25 μg/ml): no effect (1 isolate)
suppression of yeast-like forms [4]: no suppression

benzalkonium chloride
resistance of HBB to disinfectant ([1]; 1:1000): resistant

penicillin
clinical response in patients (in words) [2]: not effective for a sustained response in most patients; also recorded: short-term response in many

wheat germ agglutinin
binding of lectin to exudate and bacteria [5]: bind

B1: peanut agglutinin: lectin binding other sugars (protein, UniProt P02872 24-273, looked up)
Galactose-binding lectin: AETVSFNFNSFSEGNPAINFQGDVTVLSNGNIQLTNLNKVNSVGRVLYAMPVRIWSSATGNVASFLTSFSFEMKDIKDYDPADGIIFFIAPEDTQIPAGSIGGGTLGVSDTKGAGHFVGVEFDTYSNSEYNDPPTDHVGIDVNSVDSVKTVPWNSVSGAVVKVTVIYDSSTKTLSVAVTNDNGDITTIAQVVDLKAKLPERVKFGFSASGSLGGRQIHLIRSWSFTSTLITTTRRSIDNNEKKIMNMASA
binding of lectin to exudate and bacteria [5]: do not appear to bind
